The text below walks through data of US10889596B2, “Beta-amino pateamine a derivatives and methods for treating chronic lymphocytic leukemia” (The Texas A&M University System, priority 2016, dated 2021).

Several values for one entry are separate records, joined by “and”; a condition that tells them apart may be missing. Equal values may be shown once. Read-outs that look alike come from different tables or passages of the source.

Data set [1] concerns primary CLL cells. Put plainly: Toxicity/apoptosis in primary CLL cells, annexin V/PI double staining and flow cytometry. The class given is cell-based, human. As to conditions: for influence of human plasma content on potency: RPMI with 10% fetal bovine serum, 10% or 50% patient plasma. The procedure: (§1) The mechanism of action of DMDAPatA was studied in multiple primary CLL samples (FIG. 3A). […] CLL cells were incubated with DMDAPatA for 4 and 24 h then pulse labeled with [^3H]leucine for 1 h. The amount of [^3H]leucine incorporation into the acid insoluble materials (DNA, RNA and proteins) was measured by scintillation counter. […] This is consistent in 3 samples as quantitated in FIG. 3C. The Bcl-2 level was not affected by DMDAPatA, which is consistent with its longer half-life (FIG. 3C). […] MOMP facilitates the release of cytochrome c from mitochondria to form the apoptosome, which activated caspase-3 and induced apoptosis. As PARP is a substrate of caspase-3, an increase of cleaved PARP in FIG. 3C indicated activation of caspase 3. Apoptosis was measured by annexin V and propodium iodide (PI) double staining followed by flow cytometry.
(§2) To screen for PatA analogs with greater potency and less plasma protein binding, the toxicity of the analogs to primary CLL cells was measured after 24 of incubation by annexin/PI double staining followed by flow cytometry. This was compared between CLL cells cultured in media supplemented with either 10% FBS or patient plasma to evaluate the plasma influence. Plasma protein binding was assessed using the equilibrium dialysis method (FIG. 7B).
Background: Flow cytometry measures light scatter and fluorescence of single cells or particles in a stream.

The nature of data set [2]: Plasma protein binding, equilibrium dialysis. Format: in vitro ADME, human. The procedure: as §2
In this example, the plasma protein binding assay used to provide the plasma protein binding data is described.
The assay includes the following steps.
1. Frozen plasma was thawed and centrifuged at 1120 g for 10 min to remove any particulates. The plasma was decanted, the pH was measured and, if required, was adjusted to pH7.4 with lactic acid.
2. All compounds were prepared at 10 mM concentration in DMSO. The solutions were carefully vortexed to ensure the compounds dissolved. The 10 mM DMSO solutions were diluted to 500 μM MeOH solutions (5+95 μl).
3. In a 2 mL 96-well plate (DWP), 1000 μL of plasma was pipetted into each well in Columns 1-4.
4. 10 μL of the 500 μM compound solution was pipetted to 1000 μL of corresponding plasma. (The final DMSO=0.05%). The solution was capped and carefully vortexed for 5 min.
5. 200 μL of PBS buffer was added to each receiver well of the dialysis plate (buffer was added to the Receiver first).
6. The bottom of dialysis plate was capped and turned over to the orange donor side (top) of dialysis plate.
7. The orange donor side of the dialysis plate was uncapped and 200 μL of the 10 μM drug/plasma samples were transferred from the 2 ml 96-DWP to the corresponding donor wells in the dialysis plate. The orange donor side of the dialysis plate was then capped.
8. The dialysis plate was placed onto the plate rotator in a 37° C. oven and incubated at 37° C. with a rotation speed 20 rpm for 22 hr.
9. To a 1 mL 96-DWP, 50 μL/well of the 5 μM drug/plasma samples was pipetted from the 2 mL 96-DWP in triplicate. 50 μL/well of PBS and then 300 μL of ACN/IS was added. The plate was kept at 4° C. This plate serves as the recovery plate.
10. Two 1 mL 96-DWP were prepared and marked as Donor Plate and Receiver Plate.
11. The dialysis plate was removed from the 37° C. oven.
12. The caps were removed from the donor side of the dialysis plate.
13. 50 μL of samples were pipetted from the donor side of the dialysis plate and added into the 96-DWP Donor Plate. 50 μL of PBS buffer was added into the 96-DWP Donor Plate.
14. The donor side of the dialysis plate was capped and turned over. Caps were removed from the Receiver side wells. 50 uL of samples were pipetted from the Receiver side of the dialysis plate and added to the 96-DWP Receiver Plate. […]
23. The samples in the Receiver Plate, Donor Plate, and Recovery Plate were analyzed by LC/MS/MS […]
In general terms: Equilibrium dialysis compares concentrations on both sides of a semipermeable membrane.

In data set [3] the test system is models of human leukemia and melanoma. To be noted: mice; cited from earlier work.
The nature of data set [4]: Stability of DMDAPatA in RPMI, FBS and human plasma. The class given is in vitro ADME. To be noted: read-out: Half-life time (converted). The procedure: These experiments were performed in CLL cells cultured in media supplemented with 10% patient plasma. While mimicking the in vivo environment, we also found this condition beneficial in maintaining cell survival. One potential reason for the reduced potency in the presence of human plasma is stability. To test this theory, the stability of DMDAPatA was studied in FBS and human plasma at two different concentrations.

Data set [5] relates to Bcl-2. Put plainly: Immunoblot of Bcl-2 level in CLL cells. Format: cell-based, human. To be noted: CLL samples. On the procedure:
as §1

The subject of data set [6] is Mcl-1. Put plainly: Immunoblot of Mcl-1 level in CLL cells. To be noted: CLL samples. Format: cell-based, human. The procedure: as §1
(§3) To confirm that the analogs retain the inhibition on protein synthesis, leucine incorporation analysis was performed on the analogs (FIG. 9A) and compared to DMDAPatA and PatA.
A general note: In western blotting, separated proteins are transferred to a membrane and probed.

For data set [7], the system named is protein synthesis in CLL cells. Put plainly: [3H]leucine incorporation analysis of protein synthesis in CLL cells. The class given is cell-based, human. As to conditions: CLL cells incubated 4 and 24 h, pulse labeled 1 h. On the procedure: as §1, §3
Data set [8] has as its system P388 murine leukemia cells. As to conditions: read-out: IC50, cytotoxic activity; cited from earlier work.
In data set [9] the test system is T cells from normal donors. Put plainly: Cellular toxicity to T cells from normal donors. The class given is cell-based, human. From the text:
(§4) To predict the therapeutic window of the PatA analogs, their cellular toxicity was compared to CLL cells and to B and T cells from normal donors (FIGS. 8A and 8B). […] PatA was originally identified as a biological probe that inhibits T cell activation, consistent with its toxicity to T cells.

The subject of data set [10] is B cells from normal donors. Put plainly: Cellular toxicity to B cells from normal donors. The class given is cell-based, human.
Text: as §4

[11] abbreviates: primary CLL cells, media with 10% FBS, 24 incubation, read-out: IC50 (μM) 10% FBS.
Setting [12] is: primary CLL cells, media with 10% patient plasma, 24 incubation, read-out: IC50 (μM) 10% Plasma.
The mark [13] stands for this setting: Homo sapiens, CLL cell, primary CLL cells, media with 10% FBS, 24 incubation, read-out: IC50 (μM) 10% FBS.
[14] abbreviates: Homo sapiens, CLL cell, primary CLL cells, media with 10% patient plasma, 24 incubation, read-out: IC50 (μM) 10% Plasma.
The mark [15] stands for this setting: RPMI medium without serum, Pure RPMI.

Broadly, the IC50 is the midpoint of a concentration-inhibition curve. Usually half-life stands for the time in which the quantity being followed falls by half.

Regarding “1,1,1-Trichloro-2-methylpropan-2-yl ((12Z,3S,6Z,8E,11S,15R)-3-((1E,3E,5E)-7-(dimethyl amino)-2-methylhepta-1,3,5-trien-1-yl)-9,11-dimethyl-5,13-dioxo-4,12-dioxa-1(2,4)-thiazolacycloheptadecaphane-6,8-dien-15-yl)carbamate [OR-IV-211]”, the IC50 in [1] (setting [11]) is 3.5 µM; in data set [1] (setting [12]), 6.65 µM.

Take `CC(/C=C/C(C)=C/[C@@H]1Cc2nc(cs2)CC[C@@H](N)CC(=O)O[C@@H](C)C/C(C)=C/C=C\C(=O)O1)=C\CN(C)C` [OR-IV-234, (12Z,3S,6Z,8E,11S,15R)-15-amino-3-((1E,3E,5E)-7-(dimethylamino)-2,5-dimethylhepta-1,3,5-trien-1-yl)-9,11-dimethyl-4,12-dioxa-1(2,4)-thiazolacycloheptadecaphane-6,8-diene-5,13-dione]: the IC50 in data set [1] (setting [11]) is 0.33 µM. Moreover, the half-maximal inhibitory concentration (IC50) in data set [1] (setting [12]) is 0.35 µM. In [2], the “plasma protein binding (PPB) compared with PatA and DMDAPatA” value is listed as “much lower plasma protein binding”; the recovery in plasma result is listed as “modest recovery”.

For `CC(/C=C/C(C)=C/[C@@H]1Cc2nc(cs2)CCCCC(=O)O[C@@H](C)C/C(C)=C/C=C\C(=O)O1)=C\CN(C)C` [DMDAPatA, Des-methyl, des-amino Pateamine A], the “activity in xenograft models” value in [3] is listed as “significant tumor reduction”. The “potency relative to PatA (times less potent)” value in data set [1] (CLL cells, media with 10% patient plasma) is “about 30 times”. Besides, the “IC50 in samples with favorable versus poor prognostic characteristics” value in [1] (CLL patient samples by prognostic group) is listed as “no significant differences”. Further, the IC50 was 2.8 µM in data set [1] (Homo sapiens, CLL cell, measured in 13 CLL samples, read-out: average IC50); 0.65 µM in data set [1] (setting [13]); 6.42 µM in data set [1] (setting [14]). Moreover, the “influence of human plasma content on potency” value in data set [1] is reported as “greatly reduced the potency”. The half-life at 1 µM was 16 h in [4] (Fetal Bovine Serum), 18 h in [4] (Human Plasma) and 3 h in data set [4] (setting [15]). For the same compound, the half-life at 10 µM in data set [4] (Fetal Bovine Serum) was 11.5 h; in data set [4] (Human Plasma) it was 14 h; in data set [4] (setting [15]) it was 3.2 h. In data set [2], the recovery in plasma result was “low recovery”. Further, the plasma protein bound in data set [2] (human plasma) is 99.7% and > 99%. Also, the Bcl-2 level entry in data set [5] is listed as “not affected”. Also, the Mcl-1 level result in data set [6] is recorded as “reduced the short-lived anti-apoptotic protein Mcl-1”. Besides, the “inhibition of protein synthesis ([3H]leucine incorporation)” value in data set [7] is listed as “inhibit protein synthesis”.

Take `CC(/C=C/C(C)=C/[C@@H]1Cc2nc(cs2)[C@@H](C)C[C@@H](N)CC(=O)O[C@@H](C)C/C(C)=C/C=C\C(=O)O1)=C\CN(C)C` [PatA, Pateamine A]: the values for the IC50 in [1] (setting [13]), in [1] (setting [14]) and in [8] were 0.2 µM, 0.2 µM and 0.00027 µM, respectively. The “influence of human plasma content on potency” value in data set [1] is listed as “not as influential”. Further, the “toxicity to normal T cells compared with CLL cells” value in data set [9] is “similarly toxic to CLL cells as well as normal B and T cells”. For the same compound, in [10], the “toxicity to normal B cells compared with CLL cells” value was “similarly toxic to CLL cells as well as normal B and T cells”.

In the case of `CC(=O)NC1CCc2csc(n2)CC(C=C(C)C=CC(C)=CCN(C)C)OC(=O)C=CC=C(C)CC(C)OC(=O)C1` [MZ732, N-((12Z,3S,6Z,8E,11S,15R)-3-((1E,3E,5E)-7-(dimethylamino)-2,5-dimethylhepta-1,3,5-trien-1-yl)-9,11-dimethyl-5,13-dioxo-4,12-dioxa-1(2,4)-thiazolacycloheptadecaphane-6,8-dien-15-yl)acetamide], the values for the 50% inhibitory concentration (IC50) in [1] (setting [11]) and in data set [1] (setting [12]) were 4.58 µM and 6.8 µM, respectively.
